“And” between values parts separate entries of the source, which are not always exact repeats. Equal values may be shown once.
Assay: Kinetic studies of the plasma concentration in animals with different crystalline forms of AD (oral, monkeys; adefovir measured in serum by HPLC)
Type: in vivo, Macaques
Details: 20 mg/kg, 20 mg/kg
Protocol: The experiment was carried out by orally administering to monkeys the drugs in order to investigate the in vivo absorption of two crystalline forms of AD: the novel crystalline AD of the present invention produced by Tianjin Kinsly pharmaceutical R & D Co. Ltd. and crystalline form I of AD prepared according to the method of GILEAD SCIENCES INC. The experiment provides useful clinical references for the application of novel crystalline AD.
Tablets of novel crystalline form of AD, white, each of which contains 10 mg of adefovir, Tianjin Kinsly pharmaceutical R&D Co. Ltd., batch number 020320.
Tablets of AD crystalline form I, white, each of which contains 10 mg of adefovir, Tianjin Kinsly pharmaceutical R&D Co. Ltd., batch number 020225.
Macaques, weighing from 5 kg to 8 kg (certificate No: 2001-03, approved by Beijing Forestry Administration in the document of [2001] 83) were provided by Xie'er Animal Health Caring Science and Technology Co. Ltd (Beijing, P. R. China).
As the pro-drug of adefovir, AD is the bis-pivaloyloxymethyl ester of adefovir, which increases the in vivo bioavailability of orally administered adefovir. AD can be rapidly metabolized into PMEA, rendering it undetectable in blood. Thus the concentration of its parent compound was measured.
Mobile phase: 0.2% phosphoric acid-methanol-B7 (97:3:0.5) degassed and filtrated through 0.45 μm milipore filter.
Stationary phase: C18-column (4.6×250 mm) packed with 5μ fillers, Tianjin Tianhe Chromatogram Inc, the column temperature from 18° C. to 22° C.
Detection: the UV detection wavelength λ=260 nm (0.01AUFS)
A given volume of serum was taken and an equal volume of 10% trichloroacetic acid was added. The mixture was shaken thoroughly and kept still for more than 30 min to precipitate the proteins, then centrifuged at 10000 rpm for 2 min. The precipitates were separated and 30 μL of the supernat was removed for injection.
The experiment was started one week after intestinal worms were dispelled from the animals. Eight animals were randomly assigned into two groups, each consisting of four animals. The animals were fasted for 12 h and were orally administered the novel crystalline form of AD for one group or crystalline form I of AD for another group at a dose of 20 mg/kg together with 200 ml of water. 2 hours after administration, the animals were fed in a fixed quantity. 2.0 ml samples of whole blood were collected from the elbow veins before administration and 10, 20, 30, 45 min and 1, 2, 4, 6, 8, 12, and 24 h after administration. The serum was separated and freeze-stored for measurement. A cross-experiment was done similarly 2 weeks later.
The pharmacokinetic parameters were calculated based on the plasma concentrations at different time points. The time to peak concentration (Tpeak) and the maximum concentration (Cmax) used the measured value. The terminal phase elimination rate constant (Ke) was obtained by fitting the linear section of the curve of logarithm of the plasma concentration of drug in terminal phase versus time and the terminal phase clearance half life time (T1/2) was calculated by dividing 0.693 by Ke. AUC0-t was calculated according to the trapezoid rule.
Apparent volume of distribution (Vd)=dosage/(AUCXKe);
Total Clearance (CL)=dosage/AUC.
Comparison of the data of the two crystalline form: Data of Cmax, Ke, T1/2 and AUC0-t were statistically processed by t test, while Tpeak was processed by non-parametric test. In addition, Comparison of bio-equivalence was carried out based on Cmax and AUC0-t by using two one-sided t test.
Eight macaques were assigned into two groups, group for the novel crystalline form and the group for crystalline form I. The animals were administered according to an open randomized crossover scheme. Afterward, adefovir concentrations in serum were measured at the predetermined time points. […]

[1] = adefovir, oral 20 mg/kg, macaques, average of 8 animals (ASD row)
[2] = adefovir, oral 20 mg/kg, macaques, average of 8 animals
[3] = adefovir, oral 20 mg/kg, macaques, individual animal No. 1-8

For `CC(C)(C)C(=O)OCOP(=O)(COCCn1cnc2c(N)ncnc21)OCOC(=O)C(C)(C)C` [novel crystalline form], the “Adefovir concentrations in serum (Plasma concentrations versus time), average” value (0.167 h after oral administration, macaques, average of 8 animals (ASD row)) was 74.3 ng/mL, the “Adefovir concentrations in serum (Plasma concentrations versus time)” value (0.167 h after oral administration, macaques, individual animal No. 1-8) was 51.8 ng/mL and 105.0 ng/mL and 103.9 ng/mL and 78.3 ng/mL and 64.9 ng/mL and 53.2 ng/mL and 60.0 ng/mL and 76.9 ng/mL and the “Adefovir concentrations in serum (Plasma concentrations versus time), average” value (0.333 h after oral administration, macaques, average of 8 animals (ASD row)) was 201.4 ng/mL. The “Adefovir concentrations in serum (Plasma concentrations versus time)” value (0.333 h after oral administration, macaques, individual animal No. 1-8) was 186.7 ng/mL and 258.5 ng/mL and 248.8 ng/mL and 190.1 ng/mL and 125.9 ng/mL and 154.1 ng/mL and 176.3 ng/mL and 270.7 ng/mL, the “Adefovir concentrations in serum (Plasma concentrations versus time), average” value (0.5 h after oral administration, macaques, average of 8 animals (ASD row)) was 507.4 ng/mL and the “Adefovir concentrations in serum (Plasma concentrations versus time)” value (0.5 h after oral administration, macaques, individual animal No. 1-8) was 952.4 ng/mL and 403.1 ng/mL and 398.3 ng/mL and 541.8 ng/mL and 396.0 ng/mL and 448.9 ng/mL and 529.4 ng/mL and 389.5 ng/mL. The “Adefovir concentrations in serum (Plasma concentrations versus time), average” value (0.75 h after oral administration, macaques, average of 8 animals (ASD row)) was 392.0 ng/mL, the “Adefovir concentrations in serum (Plasma concentrations versus time)” value (0.75 h after oral administration, macaques, individual animal No. 1-8) was 507.6 ng/mL and 306.8 ng/mL and 538.7 ng/mL and 360.6 ng/mL and 278.8 ng/mL and 195.6 ng/mL and 393.7 ng/mL and 55.0 ng/mL and the “Adefovir concentrations in serum (Plasma concentrations versus time), average” value (1 h after oral administration, macaques, average of 8 animals (ASD row)) was 238.8 ng/mL. The “Adefovir concentrations in serum (Plasma concentrations versus time)” value (1 h after oral administration, macaques, individual animal No. 1-8) was 260.3 ng/mL and 231.8 ng/mL and 374.7 ng/mL and 269.4 ng/mL and 233.5 ng/mL and 132.7 ng/mL and 273.4 ng/mL, the “Adefovir concentrations in serum (Plasma concentrations versus time), average” value (2 h after oral administration, macaques, average of 8 animals (ASD row)) was 199.3 ng/mL and the “Adefovir concentrations in serum (Plasma concentrations versus time)” value (2 h after oral administration, macaques, individual animal No. 1-8) was 221.6 ng/ml and 196.1 ng/ml (2×) and 241.4 ng/ml and 117.7 ng/ml and 105.3 ng/ml and 260.3 ng/ml. The “Adefovir concentrations in serum (Plasma concentrations versus time), average” value (4 h after oral administration, macaques, average of 8 animals (ASD row)) was 157.3 ng/mL, the “Adefovir concentrations in serum (Plasma concentrations versus time)” value (4 h after oral administration, macaques, individual animal No. 1-8) was 205.1 ng/mL and 140.9 ng/mL and 184.8 ng/mL and 198.9 ng/mL and 175.8 ng/mL and 85.0 ng/mL and 77.2 ng/mL and 191.0 ng/mL and the “Adefovir concentrations in serum (Plasma concentrations versus time), average” value (6 h after oral administration, macaques, average of 8 animals (ASD row)) was 119.7 ng/mL. For the same compound, the “Adefovir concentrations in serum (Plasma concentrations versus time)” value (6 h after oral administration, macaques, individual animal No. 1-8) was 177.0 ng/mL and 114.5 ng/mL and 95.2 ng/mL and 141.2 ng/mL and 141.3 ng/mL and 85.9 ng/mL and 57.3 ng/mL and 145.3 ng/mL, the “Adefovir concentrations in serum (Plasma concentrations versus time), average” value (8 h after oral administration, macaques, average of 8 animals (ASD row)) was 102.7 ng/mL and the “Adefovir concentrations in serum (Plasma concentrations versus time)” value (8 h after oral administration, macaques, individual animal No. 1-8) was 158.9 ng/mL and 96.9 ng/mL and 112.0 ng/mL and 89.4 ng/mL and 110.7 ng/mL and 79.0 ng/mL and 55.6 ng/mL and 119.2 ng/mL. For the same compound, the “Adefovir concentrations in serum (Plasma concentrations versus time), average” value (12 h after oral administration, macaques, average of 8 animals (ASD row)) was 70.3 ng/mL, the “Adefovir concentrations in serum (Plasma concentrations versus time)” value (12 h after oral administration, macaques, individual animal No. 1-8) was 112.6 ng/mL and 82.1 ng/mL and 46.1 ng/mL and 64.5 ng/mL and 44.8 ng/mL and 59.4 ng/mL and 80.5 ng/mL and 72.2 ng/mL and the “Adefovir concentrations in serum (Plasma concentrations versus time), average” value (24 h after oral administration, macaques, average of 8 animals (ASD row)) was 51.7 ng/mL. For the same compound, the “Adefovir concentrations in serum (Plasma concentrations versus time)” value (24 h after oral administration, macaques, individual animal No. 1-8) was 99.3 ng/mL and 76.3 ng/mL and 28.3 ng/mL and 53.1 ng/mL and 36.6 ng/mL and 41.6 ng/mL and 59.4 ng/mL and 19.2 ng/mL, the Vd (adefovir apparent volume of distribution, oral 20 mg/kg, macaques, individual animal No. 1-8) was 147.5 L and 211.8 L and 89.1 L and 115.1 L and 112.4 L and 265.9 L and 224.6 L and 67.1 L and the “CL, average” value [1] was 8601.4 mL/h. The “Ke, average” value [1] was 0.066 L/h, the “T1/2, average” value [1] was 12.5 h and the “Tpeak, average” value [1] was 0.56 h. For the same compound, the “Vd, average” value [1] was 154.2 L, the “AUC0-t, average” value [2] was 2426.4 ng·h/mL and the “Cmax, average” value [2] was 545.7 ng/mL. For the same compound, the “AUC0-t, average” value (adefovir, oral 20 mg/kg, macaques, average of 8 animals, listed as Novel form) was 2426 ng·h/mL, the AUC0-t [3] was 3593.4 ng·h/mL and 2567.8 ng·h/mL and 2318.3 ng·h/mL and 2554.7 ng·h/mL and 2162.8 ng·h/mL and 1735.9 ng·h/mL and 1921.2 ng·h/mL and 2556.8 ng·h/mL and the Cmax [3] was 403.1 ng/mL and 538.7 ng/mL and 541.8 ng/mL and 396.3 ng/mL and 448.9 ng/mL and 529.4 ng/mL and 555.0 ng/mL. For the same compound, the T1/2 [3] was 18.4 h and 18.8 h and 7.2 h and 10.2 h and 8.4 h and 16.0 h and 14.9 h and 5.9 h, the Tpeak [3] was 0.50 h (6×) and 0.75 h (2×) and the Cmax (adefovir, oral 20 mg/kg, macaques, individual animal No. 1-8, listed as Novel form) was 952.4 ng/mL and 396.2 ng/mL and 448.8 ng/mL. The “average AUCO-T” value (adefovir, oral 20 mg/kg) was 2426.37 ng·h/mL, the “average Tpeak” value (adefovir, oral 20 mg/kg) was 0.56 h and the “average apparent volume of distribution (Vc)” value (adefovir, oral 20 mg/kg) was 19.74 L. The “average elimination half-life time” value (adefovir, oral 20 mg/kg) was 12.5 h and the average peak concentration (adefovir, oral 20 mg/kg) was 545.69 ng/mL.

— patent US7417036B2, “Crystal form of adefovir dipivoxil and its preparation” (Tianjin Kinsly Pharmaceutical Co. Ltd., priority 2002, dated 2008)
